{"source": "patent US20260285850A1", "about": "“SUBSTITUTED OXAZOLIDINONES AND IMIDAZOLINONES AS HERBICIDES” (FMC CORPORATION, priority 2023, published 2026)", "assay_type_in_all_cases": "in vivo", "key": {"rice (Oryza sativa)": {"system": "rice (Oryza sativa)", "assay": "Test B flooded paddy test, visual plant response rating 0-100", "conditions": "250 g ai/ha, Flood, applied to paddy water, evaluated after 13 days", "outline": "(§1)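 In this flooded assay, 2-leaf seedlings received compound through the water layer, kept at 3 cm over the soil. Plants were held 13 days in a greenhouse and then visually compared with control pots.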"}, "[1]": {"system": "barnyardgrass (Echinochloa crusgalli)", "assay": "Test B flooded paddy test, visual plant response rating 0-100", "conditions": "250 g ai/ha, Flood, applied to paddy water, evaluated after 13 days", "outline": "as §1"}, "[2]": {"system": "ducksalad (Heteranthera limosa)", "assay": "Test B flooded paddy test, visual plant response rating 0-100", "conditions": "250 g ai/ha, Flood, applied to paddy water, evaluated after 13 days", "outline": "as §1"}, "[3]": {"system": "sedge, umbrella (small-flower umbrella sedge, Cyperus difformis)", "assay": "Test B flooded paddy test, visual plant response rating 0-100", "conditions": "250 g ai/ha, Flood, applied to paddy water, evaluated after 13 days", "outline": "as §1"}, "soybean (Glycine max) [4]": {"system": "soybean (Glycine max)", "assay": "Test A postemergence application, visual injury rating 0-100", "outline": "(§2)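 Rating: visual, day 10, untreated plants as reference, 0 no effect to 100 full control. Plants were in loam-sand and were treated either preemergence via directed soil spray or postemergence at the one- to two-leaf stage.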"}, "[5]": {"system": "ragweed (common ragweed, Ambrosia artemisiifolia)", "assay": "Test A postemergence application, visual injury rating 0-100", "outline": "as §2"}, "corn (Zea mays) [6]": {"system": "corn (Zea mays)", "assay": "Test A postemergence application, visual injury rating 0-100", "outline": "as §2"}, "[7]": {"system": "galium (catchweed bedstraw, Galium aparine)", "assay": "Test A postemergence application, visual injury rating 0-100", "outline": "as §2"}, "[8]": {"system": "barnyardgrass (Echinochloa crus-galli)", "assay": "Test A postemergence application, visual injury rating 0-100", "outline": "as §2"}, "[9]": {"system": "palmer (palmer amaranth, palmer pigweed, Amaranthus palmeri)", "assay": "Test A postemergence application, visual injury rating 0-100", "outline": "as §2"}, "[10]": {"system": "ryegrass, Italian (italian ryegrass, Lolium multiflorum)", "assay": "Test A postemergence application, visual injury rating 0-100", "outline": "as §2"}, "[11]": {"system": "horseweed (Erigeron canadensis)", "assay": "Test A postemergence application, visual injury rating 0-100", "outline": "as §2"}, "[12]": {"system": "blackgrass (Alopecurus myosuroides)", "assay": "Test A postemergence application, visual injury rating 0-100", "outline": "as §2"}, "kochia (Bassia scoparia) [13]": {"system": "kochia (Bassia scoparia)", "assay": "Test A postemergence application, visual injury rating 0-100", "outline": "as §2"}, "[14]": {"system": "oat, wild (wild oat, Avena fatua)", "assay": "Test A postemergence application, visual injury rating 0-100", "outline": "as §2"}, "[15]": {"system": "green foxtail (Setaria viridis)", "assay": "Test A postemergence application, visual injury rating 0-100", "outline": "as §2"}, "[16]": {"system": "wheat (Triticum aestivum)", "assay": "Test A postemergence application, visual injury rating 0-100", "outline": "as §2"}, "soybean (Glycine max) [17]": {"system": "soybean (Glycine max)", "assay": "Test A preemergence soil spray, visual injury rating 0-100", "conditions": "10 days", "outline": "as §2"}, "[18]": {"system": "ragweed (common ragweed, Ambrosia artemisiifolia)", "assay": "Test A preemergence soil spray, visual injury rating 0-100", "conditions": "10 days", "outline": "as §2"}, "corn (Zea mays) [19]": {"system": "corn (Zea mays)", "assay": "Test A preemergence soil spray, visual injury rating 0-100", "conditions": "10 days", "outline": "as §2"}, "[20]": {"system": "barnyardgrass (Echinochloa crus-galli)", "assay": "Test A preemergence soil spray, visual injury rating 0-100", "conditions": "10 days", "outline": "as §2"}, "[21]": {"system": "palmer (palmer amaranth, palmer pigweed, Amaranthus palmeri)", "assay": "Test A preemergence soil spray, visual injury rating 0-100", "conditions": "10 days", "outline": "as §2"}, "[22]": {"system": "ryegrass, Italian (italian ryegrass, Lolium multiflorum)", "assay": "Test A preemergence soil spray, visual injury rating 0-100", "conditions": "10 days", "outline": "as §2"}, "[23]": {"system": "blackgrass (Alopecurus myosuroides)", "assay": "Test A preemergence soil spray, visual injury rating 0-100", "conditions": "10 days", "outline": "as §2"}, "kochia (Bassia scoparia) [24]": {"system": "kochia (Bassia scoparia)", "assay": "Test A preemergence soil spray, visual injury rating 0-100", "conditions": "10 days", "outline": "as §2"}, "[25]": {"system": "oat, wild (wild oat, Avena fatua)", "assay": "Test A preemergence soil spray, visual injury rating 0-100", "conditions": "10 days", "outline": "as §2"}, "[26]": {"system": "green foxtail (Setaria viridis)", "assay": "Test A preemergence soil spray, visual injury rating 0-100", "conditions": "10 days", "outline": "as §2"}, "[27]": {"system": "wheat (Triticum aestivum)", "assay": "Test A preemergence soil spray, visual injury rating 0-100", "conditions": "10 days", "outline": "as §2"}, "[28]": {"conditions": "62 g ai/ha, postemergence, 10 days, 0 = no effect, 100 = complete control"}, "[29]": {"conditions": "Postemergence, 16 g ai/ha, greenhouse 10 days, 0 no effect, 100 complete control"}, "[30]": {"conditions": "62 g ai/ha, 0 = no effect, 100 = complete control"}}, "data": [{"smiles": "COC(=O)C1CC(NC(=O)C2(C)CN(c3cc(F)cc(F)c3)C(=O)O2)C1", "note": "(stereo not shown) [Compound 118, methyl 3-[[3-(3,5-difluorophenyl)-5-methyl-2-oxo-oxazolidine-5-carbonyl]amino]cyclobutanecarboxylate]", "values": [{"measurement": "Plant response rating, Rice (0 to 100 scale, 0 is no effect and 100 is complete control)", "setting": "rice (Oryza sativa)", "value": 0}, {"measurement": "Plant response rating, Barnyardgrass (0 to 100 scale, 0 is no effect and 100 is complete control)", "setting": "[1]", "value": 0}, {"measurement": "Plant response rating, Ducksalad (0 to 100 scale, 0 is no effect and 100 is complete control)", "setting": "[2]", "value": 0}, {"measurement": "Plant response rating, Sedge, Umbrella (0 to 100 scale, 0 is no effect and 100 is complete control)", "setting": "[3]", "value": 0}, {"measurement": "Soybean plant response rating (0-100)", "setting": "soybean (Glycine max) [4]; [28]", "value": 60}, {"measurement": "Soybean plant response rating (0 to 100 scale)", "setting": "soybean (Glycine max) [4]; [29]", "value": 60}, {"measurement": "Ragweed plant response rating (0-100)", "setting": "[5]; [28]", "value": 50}, {"measurement": "Ragweed plant response rating (0 to 100 scale)", "setting": "[5]; [29]", "value": 30}, {"measurement": "Corn plant response rating (0-100)", "setting": "corn (Zea mays) [6]; [28]", "value": 100}, {"measurement": "Corn plant response rating (0 to 100 scale)", "setting": "corn (Zea mays) [6]; [29]", "value": 90}, {"measurement": "Galium plant response rating (0-100)", "setting": "[7]; [28]", "value": 60}, {"measurement": "Galium plant response rating (0 to 100 scale)", "setting": "[7]; [29]", "value": 50}, {"measurement": "Barnyardgrass plant response rating (0-100)", "setting": "[8]; [28]", "value": 100}, {"measurement": "Barnyardgrass plant response rating (0 to 100 scale)", "setting": "[8]; [29]", "value": 50}, {"measurement": "Pigweed, Palmer plant response rating (0-100)", "setting": "[9]; [28]", "value": 70}, {"measurement": "Pigweed, Palmer plant response rating (0 to 100 scale)", "setting": "[9]; [29]", "value": 20}, {"measurement": "Ryegrass, Italian plant response rating (0-100)", "setting": "[10]; [28]", "value": 80}, {"measurement": "Ryegrass, Italian plant response rating (0 to 100 scale)", "setting": "[10]; [29]", "value": 20}, {"measurement": "Horseweed plant response rating (0-100)", "setting": "[11]; [28]", "value": 0}, {"measurement": "Horseweed plant response rating (0 to 100 scale)", "setting": "[11]; [29]", "value": 0}, {"measurement": "Blackgrass plant response rating (0-100)", "setting": "[12]; [28]", "value": 100}, {"measurement": "Blackgrass plant response rating (0 to 100 scale)", "setting": "[12]; [29]", "value": 90}, {"measurement": "Kochia plant response rating (0-100)", "setting": "kochia (Bassia scoparia) [13]; [28]", "value": 70}, {"measurement": "Kochia plant response rating (0 to 100 scale)", "setting": "kochia (Bassia scoparia) [13]; [29]", "value": 30}, {"measurement": "Oat, Wild plant response rating (0-100)", "setting": "[14]; [28]", "value": 90}, {"measurement": "Oat, Wild plant response rating (0 to 100 scale)", "setting": "[14]; [29]", "value": 30}, {"measurement": "Foxtail, Green plant response rating (0-100)", "setting": "[15]; [28]", "value": 90}, {"measurement": "Foxtail, Green plant response rating (0 to 100 scale)", "setting": "[15]; [29]", "value": 90}, {"measurement": "Wheat plant response rating (0-100)", "setting": "[16]; [28]", "value": 90}, {"measurement": "Wheat plant response rating (0 to 100 scale)", "setting": "[16]; [29]", "value": 80}, {"measurement": "Soybean plant response rating", "setting": "soybean (Glycine max) [17]; 16 g ai/ha, 0 to 100 scale", "value": 0}, {"measurement": "Soybean plant response rating (0-100)", "setting": "soybean (Glycine max) [17]; [30]", "value": 30}, {"measurement": "Ragweed plant response rating", "setting": "[18]; 16 g ai/ha, 0 to 100 scale", "value": 0}, {"measurement": "Ragweed plant response rating (0-100)", "setting": "[18]; [30]", "value": 0}, {"measurement": "Corn plant response rating", "setting": "corn (Zea mays) [19]; 16 g ai/ha, 0 to 100 scale", "value": 30}, {"measurement": "Corn plant response rating (0-100)", "setting": "corn (Zea mays) [19]; [30]", "value": 90}, {"measurement": "Barnyardgrass plant response rating", "setting": "[20]; 16 g ai/ha, 0 to 100 scale", "value": 10}, {"measurement": "Barnyardgrass plant response rating (0-100)", "setting": "[20]; [30]", "value": 80}, {"measurement": "Pigweed, Palmer plant response rating", "setting": "[21]; 16 g ai/ha, 0 to 100 scale", "value": 20}, {"measurement": "Pigweed, Palmer plant response rating (0-100)", "setting": "[21]; [30]", "value": 50}, {"measurement": "Ryegrass, Italian plant response rating", "setting": "[22]; 16 g ai/ha, 0 to 100 scale", "value": 20}, {"measurement": "Ryegrass, Italian plant response rating (0-100)", "setting": "[22]; [30]", "value": 80}, {"measurement": "Blackgrass plant response rating", "setting": "[23]; 16 g ai/ha, 0 to 100 scale", "value": 30}, {"measurement": "Blackgrass plant response rating (0-100)", "setting": "[23]; [30]", "value": 90}, {"measurement": "Kochia plant response rating", "setting": "kochia (Bassia scoparia) [24]; 16 g ai/ha, 0 to 100 scale", "value": 0}, {"measurement": "Kochia plant response rating (0-100)", "setting": "kochia (Bassia scoparia) [24]; [30]", "value": 60}, {"measurement": "Oat, Wild plant response rating", "setting": "[25]; 16 g ai/ha, 0 to 100 scale", "value": 90}, {"measurement": "Oat, Wild plant response rating (0-100)", "setting": "[25]; [30]", "value": 90}, {"measurement": "Foxtail, Green plant response rating", "setting": "[26]; 16 g ai/ha, 0 to 100 scale", "value": 60}, {"measurement": "Foxtail, Green plant response rating (0-100)", "setting": "[26]; [30]", "value": 90}, {"measurement": "Wheat plant response rating", "setting": "[27]; 16 g ai/ha, 0 to 100 scale", "value": 20}, {"measurement": "Wheat plant response rating (0-100)", "setting": "[27]; [30]", "value": 80}]}]}
